Values joined by “and” are separate entries in the source; they are usually repeats but may differ in a detail not shown here. Identical values can stand only once.

Chain of human ICMT (O60725 whole entry): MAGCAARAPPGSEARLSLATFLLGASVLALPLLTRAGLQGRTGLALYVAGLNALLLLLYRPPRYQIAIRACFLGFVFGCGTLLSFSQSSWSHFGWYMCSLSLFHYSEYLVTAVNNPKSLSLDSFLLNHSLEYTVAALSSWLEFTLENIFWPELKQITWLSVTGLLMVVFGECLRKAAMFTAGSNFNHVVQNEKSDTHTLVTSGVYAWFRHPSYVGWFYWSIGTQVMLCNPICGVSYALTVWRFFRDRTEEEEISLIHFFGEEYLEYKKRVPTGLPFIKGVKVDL

The first assay has as its target human ICMT (Homo sapiens (Human), UniProt O60725). Nature of the assay: ICMT biochemical assay (Methyltransferase-Glo). Particulars: ICMT membrane extract from Sf-9 cells; 30 min preincubation, 90 min reaction. As for the experimental part: Recombinant human ICMT was prepared by infection of Sf9 cells with a recombinant baculovirus containing the entire open reading frame of the human ICMT cDNA.
Cells producing ICMT were harvested 66 hours post-infection. The cells are homogenized and resuspended in 5 mM NaHPO4 (pH 7.0), and a cocktail of protease inhibitors. The membrane was pelleted, after removal of nuclei and debris, at 100,000×g for 1 hour. Membranes were resuspended in 5 mM NaHPO4 (pH 7.0) with 5 mM EDTA at 10-12 mg/ml. The suspension was stored at −80° C. in multiple aliquots.
An ICMT enzymatic assay was developed using Promega's Methyltransferase-GloTMreagents. In the assay, ICMT catalyzes the methylation of the N-Acetyl-S-farnesyl-L-cysteine by transferring a methyl group from SAM to the farnesylated cysteine and further converts the SAM to SAH. The methyltransferase activity is measured based on the amount of SAH produced from the reaction through the use of coupling enzymes that convert the SAH to ATP. The MTase-Glo detection solution then catalyzes the formation of light from ATP.
A final concentration of 2.0 μM and 20 μM of SAM and peptide were added and further incubated for 90 minutes at room temperature before adding the MTase Glo and detection reagent. Reaction signals were detected using microplate readers on luminescent mode (Satire Tecan). The IC50 was determined by nonlinear regression, using GraphPad Prism version, 5.03.
One may read the IC50 as the concentration that inhibits the measured activity by half. Low readings indicate higher potency, high ones lower potency. `Cc1nccn1-c1cc(OCCOc2ccc(C#N)cn2)ccc1F` [Compound 109, 6-(2-(4-fluoro-3-(2-methyl-1H-imidazol-1-yl)phenoxy)ethoxy)nicotinonitrile]: the IC50 was 170 nM.

Take `N#Cc1ccc(OCCOc2cccc(-n3ccnc3C3CC3)c2)cc1` [Compound 20, 4-(2-(3-(2-cyclopropyl-1H-imidazol-1-yl)phenoxy)ethoxy)benzonitrile]: the IC50 was 0.17 nM and 0.16 nM.

Turning to `Cc1ccc(OCCOc2cccc(-c3ccnn3C)c2)c(C#N)c1` [Compound 18, 5-methyl-2-(2-(3-(1-methyl-1H-pyrazol-5-yl)phenoxy)ethoxy)benzonitrile], inhibition was half-maximal at 3 nM (IC50). The same measure, in the same setting: with `N#Cc1ccc(OCCOc2cccc(-n3cncn3)c2)cc1` [Compound 1, 4-(2-(3-(1H-1,2,4-triazol-1-yl)phenoxy)ethoxy)benzonitrile] the figure was 560 nM. Same read-out and setting: to `COc1cc(C#N)ccc1OCCOc1cccc(-n2ccnc2C)c1` [Compound 8, 3-methoxy-4-(2-(3-(2-methyl-1H-imidazol-1-yl)phenoxy)ethoxy)benzonitrile] belongs 0.2 nM and 0.36 nM; to `N#Cc1ccc(OCCOc2cccc(-c3ccnn3C3CC3)c2)c(F)c1` [Compound 116, 4-(2-(3-(1-cyclopropyl-1H-pyrazol-5-yl)phenoxy)ethoxy)-3-fluorobenzonitrile], 9.5 nM; to `Cn1nccc1-c1cc(F)cc(OCCOc2ccc(C#N)cc2)c1` [Compound 94, 4-(2-(3-fluoro-5-(1-methyl-1H-pyrazol-5-yl)phenoxy)ethoxy)benzonitrile], 1.6 nM. Still for that read-out and setting: to `CC(COc1cccc(-n2ccnc2C2CC2)c1)Oc1ccc(C#N)cc1F` (stereo not shown) [Compound 28, 4-((1-(3-(2-cyclopropyl-1H-imidazol-1-yl)phenoxy)propan-2-yl)oxy)-3-fluorobenzonitrile] belongs 1.6 nM; to `Cc1nccn1-c1cccc(OC(C)COc2ccc(C#N)cc2Cl)c1` (stereo not shown) [Compound 22, 3-chloro-4-(2-(3-(2-methyl-1H-imidazol-1-yl)phenoxy)propoxy)benzonitrile], 3 nM; to `CC(COc1cccc(-c2ccno2)c1)Oc1ccc(C#N)cc1F` (stereo not shown) [Compound 64, 3-fluoro-4-((1-(3-(isoxazol-5-yl)phenoxy)propan-2-yl)oxy)benzonitrile], 270 nM and 470 nM. As for `Cc1nccn1-c1cccc(OCCOc2ccc(C#N)cc2C(F)(F)F)c1` [Compound 111, 4-(2-(3-(2-methyl-1H-imidazol-1-yl)phenoxy)ethoxy)-3-(trifluoromethyl)benzonitrile], inhibition was half-maximal at 180 nM (IC50). Same read-out and setting: with `N#Cc1ccc(OCCOc2cccc(-n3cnnc3)c2)cc1` [Compound 21, 4-(2-(3-(4H-1,2,4-triazol-4-yl)phenoxy)ethoxy)benzonitrile] the figure was 298 nM.

Take `Cn1nccc1-c1cc(OCCOc2ccc(C#N)cc2)ccc1F` [Compound 93, 4-(2-(4-fluoro-3-(1-methyl-1H-pyrazol-5-yl)phenoxy)ethoxy)benzonitrile]: the IC50 was 6.6 nM. The same measure, in the same setting: to `Cc1cc(F)ccc1OCCOc1cccc(-c2ccnn2C)c1` [Compound 27, 5-(3-(2-(4-fluoro-2-methylphenoxy)ethoxy)phenyl)-1-methyl-1H-pyrazole] belongs 290 nM.

Turning to `N#Cc1ccc(OCCOc2cccc(-n3ccnc3C3CC3)c2)c(Cl)c1` [Compound 9, 3-chloro-4-(2-(3-(2-cyclopropyl-1H-imidazol-1-yl)phenoxy)ethoxy)benzonitrile], the IC50 is 0.1 nM and 0.18 nM. Take `Cc1nccn1-c1cccc(OCCOc2ccc(C#N)nn2)c1` [Compound 73, 6-(2-(3-(2-methyl-1H-imidazol-1-yl)phenoxy)ethoxy)pyridazine-3-carbonitrile]: inhibition was half-maximal at 950 nM (IC50).

For `C[C@@H](COc1cccc(-c2ccno2)c1)Oc1ccc(C#N)cc1F` [Compound 66, (S)-3-fluoro-4-((1-(3-(isoxazol-5-yl)phenoxy)propan-2-yl)oxy)benzonitrile], the IC50 is 180 nM and 190 nM. Same read-out and setting: to `Cn1nccc1-c1cccc(OCCOc2ncc(C#N)cc2F)c1` [Compound 82, 5-fluoro-6-(2-(3-(1-methyl-1H-pyrazol-5-yl)phenoxy)ethoxy)nicotinonitrile] belongs 210 nM and 190 nM. The same measure, in the same setting: with `Cc1nccn1-c1cc(OCCOc2ncc(C#N)cc2F)ccn1` [Compound 91, 5-fluoro-6-(2-((2-(2-methyl-1H-imidazol-1-yl)pyridin-4-yl)oxy)ethoxy)nicotinonitrile] the figure was 120 nM; with `Cc1nccn1-c1cccc(OCCOc2ccc(C#N)cn2)c1` [Compound 10, 6-(2-(3-(2-methyl-1H-imidazol-1-yl)phenoxy)ethoxy)nicotinonitrile], 80 nM; with `Cc1nccn1-c1cccc(OC(C)COc2ccc(C#N)cc2F)c1` (stereo not shown) [Compound 23, 3-fluoro-4-(2-(3-(2-methyl-1H-imidazol-1-yl)phenoxy)propoxy)benzonitrile], 61 nM.

`Cn1nccc1-c1cc(OCCOc2ncc(C#N)cc2F)ccc1F` [Compound 107, 5-fluoro-6-(2-(4-fluoro-3-(1-methyl-1H-pyrazol-5-yl)phenoxy)ethoxy)nicotinonitrile]: the IC50 came out at 150 nM. Same read-out and setting: to `Cc1nccn1-c1cc(OCCOc2ccc(Cl)cc2)ccn1` [Compound 115, 4-(2-(4-chlorophenoxy)ethoxy)-2-(2-methyl-1H-imidazol-1-yl)pyridine] belongs 160 nM. `Cc1ccc(OCCOc2cccc(-n3ccnc3C)c2)c(C#N)c1` [Compound 13, 5-methyl-2-(2-(3-(2-methyl-1H-imidazol-1-yl)phenoxy)ethoxy)benzonitrile] registered an IC50 of 11 nM. Same read-out and setting: with `Cc1nncn1-c1cc(OCCOc2ccc(C#N)cc2F)ccn1` [Compound 95, 3-fluoro-4-(2-((2-(3-methyl-4H-1,2,4-triazol-4-yl)pyridin-4-yl)oxy)ethoxy)benzonitrile] the figure was 10 nM; with `Cn1nccc1-c1cccc(OCCOc2ccc(C#N)cc2F)c1` [Compound 14, 3-fluoro-4-(2-(3-(1-methyl-1H-pyrazol-5-yl)phenoxy)ethoxy)benzonitrile], 15 nM; with `Cc1nccn1-c1cccc(OCCOc2ccc(F)cc2C#N)c1` [Compound 114, 5-fluoro-2-(2-(3-(2-methyl-1H-imidazol-1-yl)phenoxy)ethoxy)benzonitrile], 82 nM. The same measure, in the same setting: with `Cc1nccn1-c1cc(OCCOc2ncc(C#N)cc2F)ccc1F` [Compound 87, 5-fluoro-6-(2-(4-fluoro-3-(2-methyl-1H-imidazol-1-yl)phenoxy)ethoxy)nicotinonitrile] the figure was 33 nM; with `Cn1nccc1-c1cc(OCCOc2ccc(C#N)cc2Cl)ccn1` [Compound 100, 3-chloro-4-(2-((2-(1-methyl-1H-pyrazol-5-yl)pyridin-4-yl)oxy)ethoxy)benzonitrile], 1.8 nM. Same read-out and setting: to `Cn1nccc1-c1cc(OCCOc2ncc(C#N)cc2F)ccn1` [Compound 97, 5-fluoro-6-(2-((2-(1-methyl-1H-pyrazol-5-yl)pyridin-4-yl)oxy)ethoxy)nicotinonitrile] belongs 470 to 1000 nM.

`Cc1nccn1-c1cc(OCCOc2ccc(Cl)cc2F)ccn1` [Compound 103, 4-(2-(4-chloro-2-fluorophenoxy)ethoxy)-2-(2-methyl-1H-imidazol-1-yl)pyridine] returned an IC50 of 3.1 nM. This lies in the single-digit nanomolar range. The same measure, in the same setting: with `C#Cc1ccc(OCCOc2cccc(-n3ccnc3C)c2)cc1` [Compound 26, 1-(3-(2-(4-ethynylphenoxy)ethoxy)phenyl)-2-methyl-1H-imidazole] the figure was 69 nM.

As for `N#Cc1ccc(OCCOc2cccc(-c3cncs3)c2)c(Cl)c1` [Compound 11, 3-chloro-4-(2-(3-(thiazol-5-yl)phenoxy)ethoxy)benzonitrile], the half-inhibitory concentration (IC50) was 20 nM. The molecule `Cc1nccn1-c1cccc(OCC(C)Oc2ccc(C#N)cc2F)c1` (stereo not shown) [Compound 25, 3-fluoro-4-((1-(3-(2-methyl-1H-imidazol-1-yl)phenoxy)propan-2-yl)oxy)benzonitrile] had an IC50 of 23 nM. As to `Cc1nccn1-c1cccc(OCCOc2ccc(C#N)nc2)c1` [Compound 4, 5-(2-(3-(2-methyl-1H-imidazol-1-yl)phenoxy)ethoxy)picolinonitrile], the IC50 is 260 nM and 220 nM and 390 nM.

`Cc1nccn1-c1cccc(OC[C@H](C)Oc2ccc(C#N)cc2F)c1` [Compound 79, (S)-3-fluoro-4-((1-(3-(2-methyl-1H-imidazol-1-yl)phenoxy)propan-2-yl)oxy)benzonitrile] returned an IC50 of 31 nM. With `COc1cc(C#N)ccc1OC(C)COc1cccc(-n2ccnc2C)c1` (stereo not shown) [Compound 29, 3-methoxy-4-((1-(3-(2-methyl-1H-imidazol-1-yl)phenoxy)propan-2-yl)oxy)benzonitrile], the half-inhibitory concentration (IC50) amounted to 0.08 nM. Same read-out and setting: with `Cc1nccn1-c1cc(OCCOc2ccc(Cl)cc2C#N)ccn1` [Compound 99, 5-chloro-2-(2-((2-(2-methyl-1H-imidazol-1-yl)pyridin-4-yl)oxy)ethoxy)benzonitrile] the figure was 2.6 nM.

Staying with this assay, now noted: unit (nM).
Consider `COc1cc(C#N)ccc1O[C@@H](C)COc1cccc(-c2ccnn2C)c1` [Compound 60, (S)-3-methoxy-4-((1-(3-(1-methyl-1H-pyrazol-5-yl)phenoxy)propan-2-yl)oxy)benzonitrile], for which the IC50 worked out at 0.81 nM. Molecule `Cc1cc(C#N)ccc1OC(C)COc1cccc(-n2ccnc2C2CC2)c1` (stereo not shown) [Compound 61, 4-((1-(3-(2-cyclopropyl-1H-imidazol-1-yl)phenoxy)propan-2-yl)oxy)-3-methylbenzonitrile] returned an IC50 of 0.88 nM.

(Values after patent US11834430B2, “Compounds useful as inhibitors of isoprenylcysteine carboxyl methyltransferase” (AGENCY FOR SCIENCE, TECHNOLOGY AND RESEARCH, priority 2017, dated 2023).)
